SMILES strings stand for the structures. Converted amounts (≈) assume the structure as drawn. Where two headings read alike, the source gives them in different places.

One series deals with P388 murine leukemia. As to the kind of experiment: in vivo P388 murine leukemia model, iv/iv. The conditions noted are these: for survival time of the treated animals (in words): P388, compared with controls (untreated animals) or with analogues. The procedure:
(§1) The evaluation of the biological activity for the compound of this invention was performed "in vitro" and "in vivo" following the protocols developed by the U.S. National Cancer Institute.
Treatment was initiated approximately 24 hours after tumor transplantation and dosages of the product were administered iv according to preestablished protocols, usually at 3-day intervals. The studies were done over a 60 day period and the date of death for each animal was recorded. The % T/C was determined using the median survival time (MST) for each group according to the formula
T/C%=[(MSTtreated)/(MSTcontrols)]×100

For series [1] the following is noted: rat; cited from earlier work.
A further series concerns human breast MX-1 tumor. As to the kind of experiment: in vivo human breast tumor xenograft MX-1 in mice, sc/iv. The conditions noted are these: MX-1 sc/iv q7dx3. The procedure:
as §1
(§2) Further in vivo studies of biological activity of the compound of the invention were carried out using two human tumor xenografts, the human breast MX-1 tumor and the ovary tumor A2780 (Table II). […] The "tumor weight inhibition" can be evaluated as follows:
(§3) TWI%=100-[(average relative weight of the tumortreated /average
(§4) relative weight of the tumorcontrols)100]
(§5) By tumor regression, it is meant the reduction of the tumor mass measured 30 days after the end of the treatment compared with the tumor starting weight. Complete tumor regression means the disappearance of the tumor mass.
(§6) In vivo biological evaluation of the compound of the invention (I),
(§7) and A 2780) models in mice

The conditions of series [2]: man; cited from earlier work.
The next series relates to ovary tumor A2780. Put plainly: in vivo human ovary tumor xenograft A2780 in mice, sc/iv. The note with it: A 2780 sc/iv q4dx3; for Tumor regression: 30 days after end of treatment. The procedure: as §1, §2, §3, §4, §5, §6, §7
For series [3] the following is noted: W.H.O. grade; dose-limiting, phase I and II; cited from earlier work.
The test system of series [4] is human colon adenocarcinoma cell line (LoVo). As to the kind of experiment: in vitro cytotoxic activity, MTT assay, LoVo. The class given is cell-based. The conditions noted are these: for IC50: Homo sapiens, read-out: IC50 ± S.D. The procedure:
as §1
The evaluation of the "in vitro" cytotoxic activity was performed using a human colon adenocarcinoma cell line (Lovo) isolated from a metastatic nodule.
Background: Formazan colour is commonly taken as a measure of viable cells.

In series [5] the test system is cell histotypes developing resistance already against doxorubicin. The conditions noted are these: doxorubicin-resistant cell histotypes, over-expression of glycoprotein P; cited from earlier work.
The conditions of series [6]: limiting aspect; cited from earlier work.
Series [7] concerns human breast MX-1 tumor and the ovary tumor A2780. Put plainly: in vivo antitumor evaluation in human tumor xenografts MX-1 and A2780. The arrangement: species or system human tumor xenografts in mice. The conditions noted are these: for complete tumor regressions (in words): contrary to CI-941. The procedure:
as §2, §3, §4, §5

The mark [8] stands for this setting: 1 hour after treatment with the medicament.

As usually defined, the IC50 is the midpoint of a concentration-inhibition curve. For `O=C1c2c(O)cccc2-c2nn(CCNCCO)c3ccc(NCCNCCO)c1c23` [CI-941], the T/C % with P388 murine leukemia (P388 iv/iv + 1,4,7, 6 mg/kg) amounted to 133%; in the series with P388 murine leukemia (P388 iv/iv + 1,4,7, 9 mg/kg), 144%; in the series on P388 murine leukemia (P388 iv/iv + 1,4,7, 13.5 mg/kg), 133%. In addition, the Tox. is listed as 0/8 with P388 murine leukemia (P388 iv/iv + 1,4,7, 6 mg/kg); 0/8 with P388 murine leukemia (P388 iv/iv + 1,4,7, 9 mg/kg); 0/8 in the series with P388 murine leukemia (P388 iv/iv + 1,4,7, 13.5 mg/kg); 0/7 with human breast MX-1 tumor (9 mg/kg); 0/40 in the series with human breast MX-1 tumor (13.5 mg/kg); 9/33 with human breast MX-1 tumor (17.5 mg/kg). Also, the Tox. is recorded as 0/7 with ovary tumor A2780 (8 mg/kg), 0/7 with ovary tumor A2780 (10.4 mg/kg) and 5/7 in the series on ovary tumor A2780 (13.5 mg/kg). The nephrotoxicity result in [1] is reported as “marked nephrotoxicity”. For the same compound, the TWI % with human breast MX-1 tumor (9 mg/kg) is given as 83%; in the series with human breast MX-1 tumor (13.5 mg/kg) it was 93%; with human breast MX-1 tumor (17.5 mg/kg) it was 97%; with ovary tumor A2780 (8 mg/kg), 87%; in the series with ovary tumor A2780 (10.4 mg/kg), 97%; in the series on ovary tumor A2780 (13.5 mg/kg), 100%. The cardiotoxicity result in series [2] is recorded as “irreversible cardiotoxicity”. In addition, the figures for the Tumor regression with ovary tumor A2780 (8 mg/kg), in the series with ovary tumor A2780 (10.4 mg/kg) and in the series on ovary tumor A2780 (13.5 mg/kg) were 0/7, 0/7 and 1/7, respectively. For the same compound, the leukopenia entry in series [3] is “severe leukopenia (W.H.O. grade 3 and 4)”. The neutropenia result in [3] is “neutropenia (W.H.O. grade 4)”. In series [4] (1 h), the IC50 is 0.039 ± 0.035 µg/mL (≈ 0.0917 µM).

As to `O=C1c2ccccc2C(=O)c2c(NCCNCCO)ccc(NCCNCCO)c21` [ametantrone, 4-bis{[2-(2-hydroxyethylamino)ethyl]amino]anthracene-9,10-dione], the cross-resistance result in series [5] is given as “cross-resistance”. The “toxicity (myelodepression)” value in series [6] is reported as “mielodepressive toxic effect”.

In the case of `CNCCNc1ccc2c3c(nn2CCNCCO)-c2cnccc2C(=O)c13` [compound (I)], the figures for the “survival time of the treated animals (in words)” value with P388 murine leukemia (listed as 2-[2-[(2-hydroxyethyl)amino]ethyl]-5-[[2-(methylamino)ethyl]amino]indazolo[4,3-g) and with P388 murine leukemia (listed as compound of the invention) were “higher increase in the average survival time of the treated animals (expressed as % T/C) than that obtained with its analogues” and “active in increasing the survival time of the treated animals”, respectively. Further, in the series with P388 murine leukemia (P388 iv/iv + 1,4,7, 7.5 mg/kg), the T/C % came out at 167%. In addition, in the series on P388 murine leukemia (compared with mitoxantrone, Table II), the “tolerability (in words)” value is “better tolerated than mitoxantrone”. Besides, the Tox. was 0/8 with P388 murine leukemia (mouse, in vivo, iv, 7.5 mg/kg); 0/5 in the series on human breast MX-1 tumor (8.9 mg/kg); 0/5 in the series on human breast MX-1 tumor (17.5 mg/kg); 0/7 with ovary tumor A2780 (7.5 mg/kg); 0/7 with ovary tumor A2780 (9.7 mg/kg). The TWI % amounted to 78% in the series with human breast MX-1 tumor (8.9 mg/kg), 96% in the series on human breast MX-1 tumor (17.5 mg/kg), 99% in the series with ovary tumor A2780 (7.5 mg/kg) and 100% with ovary tumor A2780 (9.7 mg/kg). Moreover, the values for the Tumor regression with ovary tumor A2780 (7.5 mg/kg) and in the series with ovary tumor A2780 (9.7 mg/kg) were 4/7 and 6/7, respectively. In addition, the half-maximal inhibitory concentration (IC50) in series [4] (setting [8]) was determined as 0.54 ± 0.17 µg/mL (≈ 1.42 µM). Also, the “in vitro cytotoxic activity (in words)” value in [4] (MTT assay, compared with doxorubicin) is listed as “activity comparable to doxorubicin”. Besides, the “tumor weight inhibition (in words)” value in [7] (MX-1 and A2780 xenografts, compared with CI-941) is “activity equal if not higher than CI-941”. For the same compound, in series [7] (tested doses), the “toxic effects (in words)” value is on record as “absence of toxic effects”. For the same compound, the “complete tumor regressions (in words)” value in [7] (tested doses, listed as 2-[2-[(2-hydroxyethyl)amino]ethyl]-5-[[2-(methylamino)ethyl]amino]indazolo[4,3-g) is listed as “complete regression of the tumor in a statistically significant number of animals”; in [7] (tested doses, listed as compound of the invention), “a significant number of complete tumor regressions”.

On to `COc1cccc2c1C(=O)c1c(O)c3c(c(O)c1C2=O)C[C@@](O)(C(=O)CO)C[C@@H]3O[C@H]1C[C@H](N)[C@H](O)[C@H](C)O1` [doxorubicin], for which the half-inhibitory concentration (IC50) in series [4] (1 h) is 0.7 ± 0.49 µg/mL (≈ 1.29 µM).

On to `O=C1c2c(O)ccc(O)c2C(=O)c2c(NCCNCCO)ccc(NCCNCCO)c21` [mitoxantrone, 5,8-dihydroxy-1,4-bis{[2-(2-hydroxyethylamino)ethyly]amino]anthracene-9,10-dione], for which, in the series with P388 murine leukemia (P388 iv/iv + 1,4,7, 3 mg/kg), the T/C % is on record as 195% and the Tox. is reported as 16/284. Besides, in the series with human breast MX-1 tumor (4.5 mg/kg), the TWI % was found to be 74%. For the same compound, in series [5], the cross-resistance result is “cross-resistance”. In addition, in series [4] (setting [8]), the IC50 is 0.026 ± 0.017 µg/mL (≈ 0.0585 µM). Besides, in series [6], the “toxicity (cardiotoxicity)” value was “cardiotoxicity” and the “toxicity (myelodepression)” value is “mielodepressive toxic effect”.

The values above are taken from patent US6034092A, “2-[2-[(2-hydroxyethyl)amino]ethy [ l]-5-[[2-methylamino)ethyl]amino]indazolo4,3-gh]isoquinolin-6(2H)-one as antitumor agent” (priority 1995, dated 2000).
